# Assay results reported in patent publication US9682043B2, “Method of preparation of mixed phase co-crystals with active agents” (MedCrystalForms, LLC, priority 2003, dated 2017).
# Experiment: Intrinsic dissolution of itraconazole mixed phase co-crystals
# Assay type: physicochemical
# Settings: 3% sodium lauryl sulfate 20% isopropanol:0.1 N HCl (1:1)
# From the text: FIG. 5 is a graph showing the intrinsic dissolution rate of itraconazole mixed phase co-crystals in a 3% sodium lauryl sulfate 20% isopropanol:0.1 N HCl (1:1) media.
substance,measurement,value
Itraconazole [Control (Intact API)],Intrinsic Dissolution Rate,11.1 mcg/min/cm^2
